The values below come from ChEMBL document CHEMBL1949583, “Credneramides A and B: neuromodulatory phenethylamine and isopentylamine derivatives of a vinyl chloride-containing fatty acid from cf. Trichodesmium sp. nov” (J Nat Prod, 2012).

The experiment in a line: Neuromodulatory activity in mouse cerebrocortical neurons assessed as inhibition of calcium oscillation. Format: functional. To be noted: Cerebral cortex neuron.
Turning to `CCC/C(=C\Cl)C/C=C/CCC(=O)NCCc1ccccc1` [CREDNERAMIDE A], the IC50 was 4 µM. The result for `CCC/C(=C\Cl)C/C=C/CCC(=O)O` [CREDNERIC ACID] reads 8.2 µM; that for `CCC/C(=C\Cl)C/C=C/CCC(=O)NCCC(C)C` [CREDNERAMIDE B], 3.9 µM.
